Read-outs that look alike come from different tables or passages of the source.
What was measured:
[1] = Toxicity, Neutral Red Uptake; settings: host cells
[2] = target: Bcl-xL (Homo sapiens, UniProt Q07817); settings: Kitada et al., 2003; cited from earlier work
[3] = tested on: HSV-1; experiment: HSV-1 inactivation: virus mixed with compound, infectivity titrated on Vero cells (reduction of virus titer); format: cell-based, herpes simplex virus 1; settings: varying pH
Description: (§1) Experimental—HSV-1 and 2: Herpes simplex viruses were titrated by inoculation of 10-fold dilutions (HSV-1 was inoculated into Vero cell cultures, and HSV-2 was inoculated into CV1 cultures) in 96-well microtiter tissue culture plates. A virus dilution (0.1 ml) in RPMI 1640 with 1% fetal bovine serum (MM) was inoculated into each well with three wells per dilution. The plates were kept for 2 to 5 days, depending on the virus, and examined daily for cytopathic effect. Virus titers were calculated by the method of Reed and Muench (1938).
(§2) About 10^5 50% tissue culture infective doses (TCID50s) of virus were mixed with varying concentrations (12.5, 25, 50, 75 and 100 μM) of reduced and oxidized EGCG in MM and incubated at 37° C. for 30 min. The following samples were tested: The reduced form of EGCG (#1); the partially oxidized form of EGCG (#2); the quinone or fully oxidized form of EGCG with the addition of a copper catalyst (#3); and quinone or fully oxidized form of EGCG with the addition of a zinc catalyst (#4). In Samples #3 and #4, the addition of the copper and zinc catalysts, respectively, raised the pH to 9.0-9.5. These compounds were totally oxidized, thereby taking a quinone form. […]
(§3) Virus mixed with MM alone was used as a control. […] The 10^−1 to 10^−5 dilutions were inoculated into monolayers of Vero or CV1 cells, and the virus titers were determined as described above. […]

[4] = tested on: HSV-2; experiment: HSV-2 inactivation: virus mixed with compound, infectivity titrated on CV1 cells (reduction of virus titer); format: cell-based, herpes simplex virus 2; settings: varying pH
Description: as §1, §2, §3

[5] = tested on: HSV-1 (herpes simplex 1); experiment: Antiviral drug screen of EGCG, HSV-1; format: cell-based
[6] = tested on: HSV-2 (herpes simplex 2); experiment: Antiviral drug screen of EGCG, HSV-2; format: cell-based
[7] = tested on: HCMV (human cytomegalovirus); experiment: Antiviral drug screen of EGCG, HCMV; format: cell-based
[8] = tested on: VZV (varicella zoster virus); experiment: Antiviral drug screen of EGCG, VZV; format: cell-based
[9] = tested on: multidrug-resistant strain (33591) of Staphylococcus aureus; experiment: Antibacterial assay, pre-incubation then colony-forming units counted; format: cell-based; settings: for Killing of bacteria (cfu): 0.08% EGCG
Description: Antibacterial activity: EGCG was tested as an antibacterial agent against a multidrug-resistant strain (33591) of Staphylococcus aureus. After pre-incubating the cells with various concentrations of EGCG at pH 6, 7.5, and 8.5, cells were plated and colony-forming units (cfu) were counted as a measure of efficacy (FIG. 12).

[10] = format: physicochemical
Excerpt: An electrochemical cell was fabricated using a fine porosity glass frit in one-inch-diameter glass tubing. The electrochemical cell houses the counter electrode and keeps the Ag/AgCl reference electrode and platinum working electrode separate from the counter electrode. This addition to the system allowed the preparation of bulk solution. The working electrode and reference electrode compartment was continuously stirred using a small stir bar and a magnetic stirrer to minimize gradient effects at the working electrode. The EGCG solutions were oxidized using a positive potential to a visual end point. UV-visible spectral data were collected during these experiments, including the absorbance at 270 nm and 320 nm, corresponding to the phenol and quinone forms of EGCG, respectively. In addition, the open cell potential was recorded as experiments progressed. The active redox potentials and experimental endpoints were determined based on current and visual color changes to oligomers. Due to solution evaporation over time, the ratio of absorbance at 320 nm divided by the absorbance at 270 nm was determined in order to account for overall absorption increases. […] In addition, the visual change in solution color from clear to yellow and pink was also monitored as an indicator of degree of oxidation. Stirred EGCG solutions in 0.1 M phosphate buffer with 0.1 M KCl at pH 6.0 were monitored. The open circuit potential was initially 220 mV. […] A duplicate solution was left uncovered on the table next to the electrochemical cell as the control. After seven hours, no change in either solution at 270 and 320 nm was found. At this point the experimental potential was increased to 1000 mV for a further 16 hours (Table 3A). […] The pH of the solutions remained 6.0 throughout the experiment. All data support the forced oxidation of EGCG at pH 6.0. Solutions were allowed to sit for two more days to observe the stability of the electrochemically-induced changes (Table 3C). Solutions were pH-modified following electrochemical oxidation to observe stability. […] These samples were open to air, and no other precautions were taken to prevent oxidation by atmospheric oxygen.

[11] = format: physicochemical; remark: listed apart in the source
Excerpt: UV-Visible Absorption Spectra vs. pH: EGCG solutions undergo an immediate spectral absorption shift as the pH increases from acidic to alkaline, with a change noted at pH 7 when a peak at 320 nm appears and the dominant phenol peak at 272 nm begins to decrease (FIG. 3A). The 320 nm peak likely represents the absorbance of the quinone form of EGCG. […] However, if the alkaline solution is re-acidified within minutes, the reaction is reversible. […] EPR vs. pH study of EGCG: The EPR and UV-visible spectra of EGCG, stabilized with 0.2 M MgCl2, were measured as a function of pH (i.e., 6.03, 6.54, 7.03, 7.57, 8.09, 8.56, 9.10, 9.56). A corresponding increase in a peak at ˜314 nm and a g=2 EPR spectrum occurred with increasing pH. […] This is in agreement with the known stabilizing effect on semiquinone free radicals by divalent cations like Mg^+2. […] The multiple peaks and valleys in FIGS. 5a and 5b are the fine structure detail of a high concentration radical solution. EPR detects unpaired spinning electrons due to the absorption of microwaves in an applied magnetic field. The peak splitting is due to interaction of the lone electron's spin magnetic field with environmental magnetic fields. […]

[12] = tested on: host cells
[13] = cited from earlier work
[14] = pH 7.4; cited from earlier work
[15] = tested on: Vero cells; experiment: Toxicity to Vero cells, Cell Titer 96 Aqueous Cell Proliferation Assay
[16] = Control (no potential), pH 6.0, 43 hours
[17] = Control (no potential), pH 6.0, 55 hours
[18] = Control (no potential), pH 6.0, 68 hours
[19] = Control (no potential, uncovered), pH 6.0, 23 hours
[20] = Experiment, pH 6.0, 800 mV 7 h then 1000 mV 16 h, 23 hours
[21] = Experiment, pH 6.0, 1500 mV from 23 h, 43 hours
[22] = Experiment, pH 6.0, 1500 mV from 23 h, 55 hours
[23] = Experiment, pH 6.0, 1500 mV from 23 h, 68 hours
[24] = Experiment, pH 6.0, left to sit after electrochemical oxidation, 73 hours
[25] = Experiment, pH 6.0, left to sit after electrochemical oxidation, 79 hours
[26] = Experiment, pH 6.0, left to sit after electrochemical oxidation, 120 hours
[27] = cyclic voltammetry (Kilmartin and Hsu, 2003)

Chain of Bcl-xL (Q07817 whole entry): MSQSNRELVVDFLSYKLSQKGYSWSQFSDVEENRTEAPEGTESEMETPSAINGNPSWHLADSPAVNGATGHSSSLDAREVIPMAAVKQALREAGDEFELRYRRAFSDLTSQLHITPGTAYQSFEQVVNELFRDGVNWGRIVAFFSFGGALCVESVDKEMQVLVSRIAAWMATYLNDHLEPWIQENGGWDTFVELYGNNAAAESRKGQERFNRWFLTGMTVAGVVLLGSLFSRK

Nc1nc2c(ncn2COCCO)c(=O)[nH]1 [ACV]
CC50 [1]: > 100 µg/mL

O=C(O[C@@H]1Cc2c(O)cc(O)cc2O[C@H]1c1ccc(O)c(O)c1)c1cc(O)c(O)c(O)c1 [CG, catechin-3 gallate]
Ki [2]: nanomolar range

O=C(O[C@@H]1Cc2c(O)cc(O)cc2O[C@@H]1c1cc(O)c(O)c(O)c1)c1cc(O)c(O)c(O)c1 [EGCG, (−)-Epigallocatechingallate]
Effect of pH on activity against HSV-1 (FIG. 9) [3]: greater antiviral activity at the more alkaline pH's | Effect of pH on activity against HSV-2 (FIG. 9) [4]: greater antiviral activity at the more alkaline pH's | EC-50 ([5]; HSV-1): 24.1 µg/mL | EC-90 ([5]; HSV-1): 121 µg/mL | CC-50 ([5]; cytotoxicity in HSV-1 screen): 857 µg/mL | EC-50 ([6]; HSV-2): 7.6 µg/mL | EC-90 ([6]; HSV-2): 98.6 µg/mL | CC-50 ([6]; cytotoxicity in HSV-2 screen): 857 µg/mL | EC-50 ([7]; HCMV): 6.9 µg/mL | EC-90 ([7]; HCMV): 40 µg/mL | CC-50 ([7]; cytotoxicity in HCMV screen): >40 µg/mL | EC-50 ([8]; VZV): 4.1 µg/mL | EC-90 ([8]; VZV): >40 µg/mL | CC-50 ([8]; cytotoxicity in VZV screen): >40 µg/mL | Killing of bacteria (cfu) ([9]; pH 7.5): effective at killing nearly all the bacteria | Killing of bacteria (cfu) ([9]; pH 8.5): effective at killing nearly all the bacteria | Bactericidal effect (cfu) ([9]; 0.4-0.8% EGCG, pH 6, 7.5 and 8.5): strongly bactericidal | Effectiveness (cfu) ([9]; concentrations higher than 0.4-0.8% EGCG): less effective | Open circuit potential, initial ([10]; 0.1 M phosphate buffer with 0.1 M KCl, pH 6.0): 220 mV | 320 nm/270 nm [10, 16]: 0.174 | Absorbance 270 nm [10, 16]: 0.448 | Absorbance 320 nm [10, 16]: 0.078 | 320 nm/270 nm [10, 17]: 0.178 | Absorbance 270 nm [10, 17]: 0.471 | Absorbance 320 nm [10, 17]: 0.084 | 320 nm/270 nm [10, 18]: 0.189 | Absorbance 270 nm [10, 18]: 0.438 | Absorbance 320 nm [10, 18]: 0.083 | 320 nm/270 nm [10, 19]: 0.170 | Absorbance 270 nm [10, 19]: 0.424 | Absorbance 320 nm [10, 19]: 0.072 | 320 nm/270 nm [10, 20]: 0.256 | Absorbance 270 nm [10, 20]: 0.418 | Absorbance 320 nm [10, 20]: 0.107 | 320 nm/270 nm [10, 21]: 0.396 | Absorbance 270 nm [10, 21]: 0.432 | Absorbance 320 nm [10, 21]: 0.171 | 320 nm/270 nm [10, 22]: 0.467 | Absorbance 270 nm [10, 22]: 0.422 | Absorbance 320 nm [10, 22]: 0.197 | 320 nm/270 nm [10, 23]: 0.522 | Absorbance 270 nm [10, 23]: 0.429 | Absorbance 320 nm [10, 23]: 0.224 | 320 nm/270 nm [10, 24]: 0.533 | Absorbance 270 nm [10, 24]: 0.430 | Absorbance 320 nm [10, 24]: 0.229 | 320 nm/270 nm [10, 25]: 0.538 | Absorbance 270 nm [10, 25]: 0.426 | Absorbance 320 nm [10, 25]: 0.229 | 320 nm/270 nm [10, 26]: 0.546 | Absorbance 270 nm [10, 26]: 0.436 | Absorbance 320 nm [10, 26]: 0.238 | Stability of electrochemically oxidized solution (320 nm absorbance) ([10]; pH 6): stable for over two days | Oxidation of control sample ([10]; pH 6.0, no potential, uncovered, 23 hours): did not oxidize | Stability of pH-modified solution after electrochemical oxidation (FIG. 14) ([10]; pH 6.26): relatively stable after 7 days | Stability of 320 nm oxidation peak [11]: disappears within hours | Decay time of semiquinone EPR signal ([11]; after basification, 0.2 M MgCl2, no electrochemical modulation): 30 min | CC50, TOXICITY Neutral Red Uptake [12]: CC50 > 200 | Ki [2]: nanomolar range | Oxidation peak potential, first range [13, 27]: 105 mV | Oxidation peak potential, second range [13, 27]: 213 mV | Reduction potential ([13]; pH 7, versus a normal hydrogen electrode): 430 mV | Time to complete degradation [14]: 6 h

O=C(O[C@@H]1Cc2c(O)cc(O)cc2O[C@H]1c1cc(O)c(O)c(O)c1)c1cc(O)c(O)c(O)c1 [GCG, gallocatechin-3 gallate]
Ki [2]: nanomolar range

O=C(O[C@@H]1Cc2c(O)cc(O)cc2O[C@@H]1c1cc(O)c(O)c(O)c1)c1cc(O)c(O)c(O)c1 [Reduced EGCG]
Cell Titer 96 assay reading, mean ± SD ([15]; 50 μM, 24 hours after addition): 0.753 ± 0.027 | Cell Titer 96 assay reading, mean ± SD ([15]; 50 μM, 48 hours after addition): 0.750 ± 0.033 | Cell Titer 96 assay reading, mean ± SD ([15]; 75 μM, 24 hours after addition): 0.685 ± 0.052 | Cell Titer 96 assay reading, mean ± SD ([15]; 75 μM, 48 hours after addition): 0.706 ± 0.026 | Cell Titer 96 assay reading, mean ± SD ([15]; 100 μM, 24 hours after addition): 0.700 ± 0.043 | Cell Titer 96 assay reading, mean ± SD ([15]; 100 μM, 48 hours after addition): 0.705 ± 0.019

epicatechin-3 gallate [ECG]
Ki [2]: nanomolar range

Source: patent US20100021989A1, “COMPOSITIONS AND METHODS OF CONTROLLING AND ADMINISTERING REDOX SPECIFIC FORMS OF DRUGS, FOODS AND DIETARY SUPPLEMENTS” (priority 2008, published 2010)
